Reference: patent US20100041089A1, “IMPROVED METHOD FOR DETECTING CHEMICAL […]” (priority 2006, published 2010)

Tested on: yeast genes (expressed mRNA)
Assay: DNA chip measurement of expressed mRNA of yeast genes after culture with a toxic chemical substance
Assay type: cell-based, Saccharomyces cerevisiae S288C
Conditions: for The level of expressed mRNA in the presence of chemical substance/The level of expressed mRNA in the absence of chemical substance: cultured two hours with substance; for level of expressed mRNA in the presence of chemical substance / level in the absence of chemical substance: cultured two hours with the chemical substance
Protocol: Yeast (Saccharomyces cerevisiae S288C (a SUC2mal mel gap2 CUP1)) were cultured at 25° C. on YPD medium (yeast extract 1%, polypeptone 2%, glucose 2%). One of toxic chemical substances was added to the cell at logarithmic growth phase, and the cell was further cultured for two hours. Cell was cultured without any chemical substance in the same condition, and was used as a control. Concentrations of the chemical substances were defined to inhibit the growth of the yeast but not lead to death.
After the completion of cultivation, the culture was centrifuged to collect the cells. To the cells, sodium acetate buffer (50 mM sodium acetate, 10 mM EDTA, 1% SDS) was added, and the mixture was shaken at 65° C. for five minutes, followed by returning to room temperature, and obtaining the supernatant, which procedure was repeated two times. To the supernatant, ½ amount of a solution of phenol/chloroform (1:1) was added, and the mixture was centrifuged to give a supernatant, an equal amount of chloroform was added, and the mixture was centrifuged to give a supernatant. To the supernatant, an equal amount of isopropanol containing 0.3 M sodium acetate was added, and the mixture was allowed to stand at room temperature for 30 minutes, after which the mixture was centrifuged to give sediment of the whole RNAs. Seventy % ethanol was added to the sediment, and the mixture was again centrifuged to give sediment, which was then dried and dissolved in water. mRNA was isolated from the whole RNAs as followings. In view of the fact that a poly A chain is attached to the 3′ terminus of mRNA, a polynucleotide having a poly T structure which was immobilized on the surface of latex beads was used to trap the mRNA, and then the mRNA was washed and eluted with spine column (Oligotex-dT30<Super>mRNA Purification Kit, Takara). Reverse transcription of the mRNA was conducted with a reverse transcriptase (Super Script II Reverse Transcriptase; catalogue No. 18064-014, GibcoBRL) using fluorescence-labeled nucleotides to give cDNAs that were introduced with Cy3-dUTP or Cy5-dUTP during the reverse transcription.
The labeled cDNAs were dissolved in TE buffer (10 mM Tris-HCl/1 mM EDTA, pH 8.0), and the solution was dropped on the DNA chip containing the whole genes of yeast (DNA Chip Research Inc. Japan) so that the cDNAs were hybridized on the DNA chip at 65° C. for over 12 hours. The fluoresces intensity of the DNA chip was read with a scanner, and the ratio relative to the fluorescence intensity resulting from the absence of chemical substance was estimated as the following, which is shown in Tables 1 to 9.
In the Tables, “Intensity” indicated in the rightmost column is a value of the level of expressed mRNA of each gene in control cells as divided by the average level of the expressions of the whole genes. A gene of which mRNA level is lower in control, and is higher in cases of addition of chemical substance, is especially useful in the detection of toxic substances.
Here, when a ratio of an amount of mRNA expressed in the presence of the chemical substance to an amount of mRNA expressed in the absence of the chemical substance is two or more, then it is considered significant.

## Na2As [(1)]
Yeast gene YJL151C
  The level of expressed mRNA in the presence of chemical substance/The level of expressed mRNA in the absence of chemical substance: 1.0
Yeast gene YJL152W
  The level of expressed mRNA in the presence of chemical substance/The level of expressed mRNA in the absence of chemical substance: 0.9
Yeast gene YJL161W
  The level of expressed mRNA in the presence of chemical substance/The level of expressed mRNA in the absence of chemical substance: 1.7
Yeast gene YJL171C
  The level of expressed mRNA in the presence of chemical substance/The level of expressed mRNA in the absence of chemical substance: 2.3
Yeast gene YJR008W
  The level of expressed mRNA in the presence of chemical substance/The level of expressed mRNA in the absence of chemical substance: 1.6
Yeast gene YJR030C
  level of expressed mRNA in the presence of chemical substance / level in the absence of chemical substance: 0.7
Yeast gene YJR054W
  The level of expressed mRNA in the presence of chemical substance/The level of expressed mRNA in the absence of chemical substance: 0.8
Yeast gene YKL051W
  level of expressed mRNA in the presence of chemical substance / level in the absence of chemical substance: 1.0
Yeast gene YKL071W
  The level of expressed mRNA in the presence of chemical substance/The level of expressed mRNA in the absence of chemical substance: 8.3
Yeast gene YKL086W
  The level of expressed mRNA in the presence of chemical substance/The level of expressed mRNA in the absence of chemical substance: 1.0
Yeast gene YKL097C
  level of expressed mRNA in the presence of chemical substance / level in the absence of chemical substance: 0.9
Yeast gene YKL100C
  level of expressed mRNA in the presence of chemical substance / level in the absence of chemical substance: 0.7
Yeast gene YKL151C
  The level of expressed mRNA in the presence of chemical substance/The level of expressed mRNA in the absence of chemical substance: 1.2
Yeast gene YKL153W
  The level of expressed mRNA in the presence of chemical substance/The level of expressed mRNA in the absence of chemical substance: 1.1
Yeast gene YKL195W
  The level of expressed mRNA in the presence of chemical substance/The level of expressed mRNA in the absence of chemical substance: 0.8
Yeast gene YKR040C
  level of expressed mRNA in the presence of chemical substance / level in the absence of chemical substance: 1.2
Yeast gene YKR091W
  The level of expressed mRNA in the presence of chemical substance/The level of expressed mRNA in the absence of chemical substance: 1.5
Yeast gene YLR054C
  The level of expressed mRNA in the presence of chemical substance/The level of expressed mRNA in the absence of chemical substance: 2.0
Yeast gene YLR149C
  The level of expressed mRNA in the presence of chemical substance/The level of expressed mRNA in the absence of chemical substance: 1.4
Yeast gene YLR152C
  The level of expressed mRNA in the presence of chemical substance/The level of expressed mRNA in the absence of chemical substance: 0.7
Yeast gene YLR194C
  The level of expressed mRNA in the presence of chemical substance/The level of expressed mRNA in the absence of chemical substance: 2.1
Yeast gene YLR226W
  level of expressed mRNA in the presence of chemical substance / level in the absence of chemical substance: 1.0
Yeast gene YLR324W
  The level of expressed mRNA in the presence of chemical substance/The level of expressed mRNA in the absence of chemical substance: 0.7
Yeast gene YLR338W
  level of expressed mRNA in the presence of chemical substance / level in the absence of chemical substance: 1.1
Yeast gene YLR350W
  The level of expressed mRNA in the presence of chemical substance/The level of expressed mRNA in the absence of chemical substance: 1.2
Yeast gene YLR387C
  The level of expressed mRNA in the presence of chemical substance/The level of expressed mRNA in the absence of chemical substance: 0.9
Yeast gene YLR392C
  level of expressed mRNA in the presence of chemical substance / level in the absence of chemical substance: 1.1
Yeast gene YLR415C
  level of expressed mRNA in the presence of chemical substance / level in the absence of chemical substance: 1.1
Yeast gene YLR427W
  level of expressed mRNA in the presence of chemical substance / level in the absence of chemical substance: 0.6
Yeast gene YLR460C
  The level of expressed mRNA in the presence of chemical substance/The level of expressed mRNA in the absence of chemical substance: 2.1
Yeast gene YML013W
  level of expressed mRNA in the presence of chemical substance / level in the absence of chemical substance: 0.8
Yeast gene YML029W
  level of expressed mRNA in the presence of chemical substance / level in the absence of chemical substance: 0.6
Yeast gene YML041C
  level of expressed mRNA in the presence of chemical substance / level in the absence of chemical substance: 1.2
Yeast gene YML079W
  level of expressed mRNA in the presence of chemical substance / level in the absence of chemical substance: 1.0
Yeast gene YML117W
  The level of expressed mRNA in the presence of chemical substance/The level of expressed mRNA in the absence of chemical substance: 0.9
Yeast gene YMR009W
  The level of expressed mRNA in the presence of chemical substance/The level of expressed mRNA in the absence of chemical substance: 2.3
Yeast gene YMR067C
  The level of expressed mRNA in the presence of chemical substance/The level of expressed mRNA in the absence of chemical substance: 0.9
Yeast gene YMR068W
  level of expressed mRNA in the presence of chemical substance / level in the absence of chemical substance: 0.9
Yeast gene YMR071C
  level of expressed mRNA in the presence of chemical substance / level in the absence of chemical substance: 1.0
Yeast gene YMR090W
  The level of expressed mRNA in the presence of chemical substance/The level of expressed mRNA in the absence of chemical substance: 6.9
Yeast gene YMR095C
  The level of expressed mRNA in the presence of chemical substance/The level of expressed mRNA in the absence of chemical substance: 1.1
Yeast gene YMR097C
  The level of expressed mRNA in the presence of chemical substance/The level of expressed mRNA in the absence of chemical substance: 1.5
Yeast gene YMR102C
  The level of expressed mRNA in the presence of chemical substance/The level of expressed mRNA in the absence of chemical substance: 1.0
Yeast gene YMR107W
  The level of expressed mRNA in the presence of chemical substance/The level of expressed mRNA in the absence of chemical substance: 5.0
Yeast gene YMR160W
  level of expressed mRNA in the presence of chemical substance / level in the absence of chemical substance: 0.8
Yeast gene YMR180C
  The level of expressed mRNA in the presence of chemical substance/The level of expressed mRNA in the absence of chemical substance: 1.2
Yeast gene YMR184W
  The level of expressed mRNA in the presence of chemical substance/The level of expressed mRNA in the absence of chemical substance: 1.3
Yeast gene YMR191W
  The level of expressed mRNA in the presence of chemical substance/The level of expressed mRNA in the absence of chemical substance: 1.3
Yeast gene YMR295C
  The level of expressed mRNA in the presence of chemical substance/The level of expressed mRNA in the absence of chemical substance: 1.7
Yeast gene YMR316W
  The level of expressed mRNA in the presence of chemical substance/The level of expressed mRNA in the absence of chemical substance: 3.2
Yeast gene YNL026W
  level of expressed mRNA in the presence of chemical substance / level in the absence of chemical substance: 0.7
Yeast gene YNL044W
  The level of expressed mRNA in the presence of chemical substance/The level of expressed mRNA in the absence of chemical substance: 1.3
